Measurements from paper PMC8428256 (Journal of medicinal chemistry, 2021).

How the values were obtained:
[1] = system: WIL-FL F98D; settings: Figure S5
[2] = target: WIL-FL* (fluorescein-labeled WIL-FL LC dimer) (Homo sapiens, UniProt P01721, form not given/K101C); test: Proteolysis-coupled fluorescence polarization; assay type: biochemical; settings: for potency (EC50) increase compared to 1: WIL-FL* EC50 ratio to compound 1
[3] = system: plasma proteins; assay type: in vitro ADME, human or mouse; settings: 2 μM in plasma, dialysis 4 h, 37 °C
[4] = target: WIL-FL* T46L/F49Y (Homo sapiens, UniProt P01721, form not given/K101C/T66L); settings: WIL-FL T46L/F49Y EC50
[5] = system: WIL-FL* (fluorescein-labeled WIL-FL LC dimer); test: Proteolysis-coupled fluorescence polarization; assay type: biochemical, human; settings: assay not given; data in Tables S2-S6 of the supplement
[6] = system: WIL-FL F98D; settings: cited from earlier work

Chain of WIL-FL* (fluorescein-labeled WIL-FL LC dimer) (Homo sapiens, UniProt P01721, form not given/K101C) (P01721 20-117 K101C, form open): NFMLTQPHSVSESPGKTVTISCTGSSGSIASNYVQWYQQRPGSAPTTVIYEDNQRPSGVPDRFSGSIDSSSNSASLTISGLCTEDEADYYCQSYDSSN
Chain of WIL-FL* (fluorescein-labeled WIL-FL LC dimer) (P01721 20-117 K101C, form open): as above
Chain of WIL-FL* T46L/F49Y (P01721 20-117 T66L/K101C, form open): as the sequence (P01721 20-117 K101C, form open) above, with T47L counted along it

## CCN(CC)c1ccc2c(C)c(CCOC(=O)NCc3cccc(-c4ccc[nH]c4=O)c3)c(=O)oc2c1 [Compound 27, 2-(7-(diethylamino)-4-methyl-2-oxo-2H-chromen-3-yl)ethyl (3-(2-oxo-1,2-dihydropyridin-3-yl)benzyl)carbamate]
[1]
  proteinase K resistance provided to WIL-FL F98D: no appreciable proteinase K resistance

## CCN(CC)c1ccc2c(C)c(CCOC(=O)N(C)CCc3cccnc3)c(=O)oc2c1 [Compound 22, 2-(7-(diethylamino)-4-methyl-2-oxo-2H-chromen-3-yl)ethyl methyl(2-(pyridin-3-yl)ethyl)carbamate]
[2]; WIL-FL* EC50
  reduced potency compared to the secondary carbamate 21: 70 fold

## CCN(CC)c1ccc2c(C)c(CCOC(=O)NCc3cccc(C(N)=O)c3)c(=O)oc2c1 [Compound 25, 2-(7-(diethylamino)-4-methyl-2-oxo-2H-chromen-3-yl)ethyl (3-carbamoylbenzyl)carbamate]
[2]
  potency (EC50) increase compared to 1: up to 22 fold

## CCN(CC)c1ccc2c(C)c(CCOC(=O)NCc3cccc(NC(C)=O)c3)c(=O)oc2c1 [Compound 23, 2-(7-(diethylamino)-4-methyl-2-oxo-2H-chromen-3-yl)ethyl (3-acetamidobenzyl)carbamate]
[2]
  potency (EC50) increase compared to 1: up to 22 fold

## Cc1cc(=O)oc2cc(OCC(C)c3ccccc3)ccc12 (centres unmarked) [Compound 57, 4-methyl-7-(2-phenylpropoxy)-2H-chromen-2-one]
[3]
  plasma protein binding (in words): very high plasma protein binding
[4]
  potency increase relative to 2: 9 fold

## CCN(CC)c1ccc2c(C)c(CCOC(=O)NCCc3cccnc3)c(=O)oc2c1 [Compound 21, 2-(7-(diethylamino)-4-methyl-2-oxo-2H-chromen-3-yl)ethyl (2-(pyridin-3-yl)ethyl)carbamate]
[2]
  potency (EC50) increase compared to 1: ≤ 8 fold

## Cc1c(CCN2CC3(CCN(c4nccn5ccnc45)CC3)NC2=O)c(=O)oc2cc(O[C@H](C)c3ccccc3)ccc12 [(R)-83, (R)-8-(imidazo[1,2-a]pyrazin-8-yl)-3-(2-(4-methyl-2-oxo-7-(1-phenylethoxy)-2H-chromen-3-yl)ethyl)-1,3,8-triazaspiro[4.5]decan-2-one]
[1]
  proteinase K resistance provided to WIL-FL F98D: no appreciable proteinase K resistance

## Cc1c(CN2CCOCC2)c(=O)oc2cc(OCC(C)c3ccccc3)ccc12 (centres unmarked) [Compound 63, 4-methyl-3-(morpholinomethyl)-7-(2-phenylpropoxy)-2H-chromen-2-one]
[5]
  stabilizer potency (qualitative statement in text): slightly increased their potency

## CCN(CC)c1ccc2c(C)c(CCOC(=O)NCc3cccnc3)c(=O)oc2c1 [Compound 20, 2-(7-(diethylamino)-4-methyl-2-oxo-2H-chromen-3-yl)ethyl (pyridin-3-ylmethyl)carbamate]
[2]
  potency (EC50) increase compared to 1: ≤ 8 fold

## CCN(CC)c1ccc2c(C)c(CCOC(=O)NCc3cccc(-c4c[nH]cn4)c3)c(=O)oc2c1 [Compound 26, 2-(7-(diethylamino)-4-methyl-2-oxo-2H-chromen-3-yl)ethyl (3-(1H-imidazol-4-yl)benzyl)carbamate]
[2]
  potency (EC50) increase compared to 1: 42 fold

## Cc1c(CN2CCOCC2)c(=O)oc2cc(OC(C)c3ccccc3)ccc12 (centres unmarked) [Compound 62, 4-methyl-3-(morpholinomethyl)-7-(1-phenylethoxy)-2H-chromen-2-one]
[5]
  stabilizer potency (qualitative statement in text): slightly increased their potency

## CCN(CC)c1ccc2c(C)cc(=O)oc2c1 [Compound 1]
[6]
  binding to LC with F98D mutation: obviates binding

## CCN(CC)c1ccc2c(C)c(CCOC(=O)NCC3CCCNC3)c(=O)oc2c1 (centres unmarked) [Compound 18, 2-(7-(diethylamino)-4-methyl-2-oxo-2H-chromen-3-yl)ethyl (piperidin-3-ylmethyl)carbamate]
[2]
  potency (EC50) increase compared to 1: ≤ 8 fold
